The results in this text go back to patent US20090018134A1, “Compounds - 945” (AstraZeneca AB, priority 2007, published 2009).

The term IC50 denotes the concentration needed to halve the response being measured.

This test addresses T1, mTOR (Homo sapiens, UniProt P42345).
T1 construct: FLAG; made in house
In words: In Vitro mTOR Kinase Assay (Echo), Test (a)(ii). The format is biochemical. As to conditions: table of enzyme assay Test (a)(ii); read-out: Test (a)(ii) IC50. The method, boiled down:
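Enzyme: HEK293-expressed, FLAG-purified mTOR C-terminal fragment (aa 1362-2549). Rxn 2 h RT with biotinylated peptide, stopped with EDTA 50 mM/BSA/Tris pH 7.4. Detection: T389 phospho-antibody AlphaScreen, 680 nm excitation. IC50.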

T1 sequence (P42345 1362-2549): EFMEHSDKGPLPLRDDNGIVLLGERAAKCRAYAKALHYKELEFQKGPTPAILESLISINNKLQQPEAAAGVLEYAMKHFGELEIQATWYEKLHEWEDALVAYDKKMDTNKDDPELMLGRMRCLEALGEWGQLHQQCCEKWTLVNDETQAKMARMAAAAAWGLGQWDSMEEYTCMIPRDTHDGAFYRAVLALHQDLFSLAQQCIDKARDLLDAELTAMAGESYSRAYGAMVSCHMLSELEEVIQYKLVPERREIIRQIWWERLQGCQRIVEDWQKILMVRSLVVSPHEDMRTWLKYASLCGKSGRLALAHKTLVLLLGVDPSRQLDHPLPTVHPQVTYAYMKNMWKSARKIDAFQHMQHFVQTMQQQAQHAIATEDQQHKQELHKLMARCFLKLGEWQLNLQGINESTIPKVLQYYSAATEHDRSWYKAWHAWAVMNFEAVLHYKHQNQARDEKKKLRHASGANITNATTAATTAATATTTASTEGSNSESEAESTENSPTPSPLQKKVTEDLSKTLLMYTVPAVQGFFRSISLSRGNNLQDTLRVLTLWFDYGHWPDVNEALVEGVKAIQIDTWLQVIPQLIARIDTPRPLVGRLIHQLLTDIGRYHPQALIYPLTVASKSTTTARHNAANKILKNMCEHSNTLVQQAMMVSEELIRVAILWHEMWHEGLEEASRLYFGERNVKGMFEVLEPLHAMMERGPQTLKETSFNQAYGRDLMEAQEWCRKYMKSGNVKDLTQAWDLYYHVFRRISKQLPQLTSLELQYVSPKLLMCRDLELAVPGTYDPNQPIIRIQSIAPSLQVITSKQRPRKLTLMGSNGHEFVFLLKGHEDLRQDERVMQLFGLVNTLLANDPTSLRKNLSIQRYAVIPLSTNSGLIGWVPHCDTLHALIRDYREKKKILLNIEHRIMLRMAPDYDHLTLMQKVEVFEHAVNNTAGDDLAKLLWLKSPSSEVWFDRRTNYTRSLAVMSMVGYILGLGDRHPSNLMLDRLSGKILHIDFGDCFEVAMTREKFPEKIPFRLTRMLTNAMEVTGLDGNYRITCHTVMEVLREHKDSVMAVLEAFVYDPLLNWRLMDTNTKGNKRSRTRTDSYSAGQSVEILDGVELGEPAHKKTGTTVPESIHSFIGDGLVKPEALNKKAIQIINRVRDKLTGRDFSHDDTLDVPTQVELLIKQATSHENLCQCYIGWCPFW

With `CCNC(=O)Nc1ccc(-c2nc(N3CCOC[C@@H]3C)cc(C3(S(=O)(=O)c4nc(C)cs4)CC3)n2)cc1` [Example 25e, 1-ethyl-3-[4-[4-[(3S)-3-methylmorpholin-4-yl]-6-[1-[(4-methyl-1,3-thiazol-2-yl)sulfonyl]cyclpropyl]pyrimidin-2-yl]phenyl]urea], the half-maximal inhibitory concentration (IC50) was 0.277 nM.

For `Cc1csc(S(=O)(=O)C2(c3cc(N4CCOC[C@@H]4C)nc(-c4ccc(NC(=O)NCCN(C)C)cc4)n3)CC2)n1` [Example 25f, 3-(2-dimethylaminoethyl)-1-[4-[4-[(3S)-3-methylmorpholin-4-yl]-6-[1-[(4-methyl-1,3-thiazol-2-yl)sulfonyl]cyclopropyl]pyrimidin-2-yl]phenyl]urea], the IC50 is 54.7 nM.

`CCCNC(=O)Nc1ccc(-c2nc(N3CCOC[C@@H]3C)cc(C3(S(=O)(=O)c4nc(C)cs4)CC3)n2)cc1` [Example 25h, 3-[4-[4-[(3S)-3-methylmorpholin-4-yl]-6-[1-[(4-methyl-1,3-thiazol-2-yl)sulfonyl]cyclopropyl]pyrimidin-2-yl]phenyl]-1-propylurea]: the IC50 is 0.993 nM.

Regarding `CNC(=O)Nc1ccc(-c2nc(N3CCOC[C@@H]3C)cc(C3(S(=O)(=O)c4nc(C)cs4)CC3)n2)cc1` [Example 25i, 3-methyl-1-[4-[4-[(3S)-3-methylmorpholin-4-yl]-6-[1-[(4-methyl-1,3-thiazol-2-yl)sulfonyl]cyclopropyl]pyrimidin-2-yl]phenyl]urea], the IC50 came to 1 nM.

Consider `Cc1csc(S(=O)(=O)C2(c3cc(N4CCOC[C@@H]4C)nc(-c4ccc(NC(=O)Nc5ccc(C(F)(F)F)cc5)cc4)n3)CC2)n1` [Example 25j, 1-[4-[4-[(3S)-3-methylmorpholin-4-yl]-6-[1-[(4-methyl-1,3-thiazol-2-yl)sulfonyl]cyclopropyl]pyrimidin-2-yl]phenyl]-3-[4-(trifluoromethyl)phenyl]urea], for which the half-inhibitory concentration (IC50) came to 5.76 nM.

As to `Cc1csc(S(=O)(=O)C2(c3cc(N4CCOC[C@@H]4C)nc(-c4ccc(NC(=O)NC(C)(C)CO)cc4)n3)CC2)n1` [Example 25k, 3-(1-hydroxy-2-methylpropan-2-yl)-1-[4-[4-[(3S)-3-methylmorpholin-4-yl]-6-[1-[(4-methyl-1,3-thiazol-2-yl)sulfonyl]cyclopropyl]pyrimidin-2-yl]phenyl]urea], the IC50 worked out at 2.92 nM.

On to `Cc1csc(S(=O)(=O)C2(c3cc(N4CCOC[C@@H]4C)nc(-c4ccc(NC(=O)NCCCO)cc4)n3)CC2)n1` [Example 25l, 3-(3-hydroxypropyl)-1-[4-[4-[(3S)-3-methylmorpholin-4-yl]-6-[1-[(4-methyl-1,3-thiazol-2-yl)sulfonyl]cyclopropyl]pyrimidin-2-yl]phenyl]urea], for which the half-maximal inhibitory concentration (IC50) came to 0.956 nM.

With `Cc1csc(S(=O)(=O)C2(c3cc(N4CCOC[C@@H]4C)nc(-c4ccc(NC(=O)Nc5cnn(C)c5)cc4)n3)CC2)n1` [Example 25m, 1-[4-[4-[(3S)-3-methylmorpholin-4-yl]-6-[1-[(4-methyl-1,3-thiazol-2-yl)sulfonyl]cyclopropyl]pyrimidin-2-yl]phenyl]-3-(1-methylpyrazol-4-yl)urea], the IC50 is 0.25 nM.

With `C[C@H]1COCCN1c1cc(C2(S(=O)(=O)C3CCCCC3)CC2)nc(-c2ccc(NC(=O)NC3CC3)cc2)n1` [Example 26, 1-[4-[4-(1-Cyclohexylsulfonylcyclopropyl)-6-[(3S)-3-methylmorpholin-4-yl]pyrimidin-2-yl]phenyl]-3-cyclopropylurea], the IC50 worked out at 6.05 nM.

As for `C[C@H]1COCCN1c1cc(C2(S(=O)(=O)C3CCCCC3)CC2)nc(-c2ccc(NC(=O)NC3CCC3)cc2)n1` [Example 26a, 3-cyclobutyl-1-[4-[4-(1-cyclohexylsulfonylcyclopropyl)-6-[(3S)-3-methylmorpholin-4-yl]pyrimidin-2-yl]phenyl]urea], the IC50 is 6.72 nM.

Take `CCNC(=O)Nc1ccc(-c2nc(N3CCOC[C@@H]3C)cc(C3(S(=O)(=O)C4CCCCC4)CC3)n2)cc1` [Example 26b, 3-[4-[4-(1-cyclohexylsulfonylcyclopropyl)-6-[(3S)-3-methylmorpholin-4-yl]pyrimidin-2-yl]phenyl]-1-ethylurea]: the IC50 worked out at 3.9 nM.

As to `C[C@H]1COCCN1c1cc(C2(S(=O)(=O)C3CCCCC3)CC2)nc(-c2ccc(NC(=O)NCCN(C)C)cc2)n1` [Example 26c, 1-[4-[4-(1-cyclohexylsulfonylcyclopropyl)-6-[(3S)-3-methylmorpholin-4-yl]pyrimidin-2-yl]phenyl]-3-(2-dimethylaminoethyl)urea], the 50% inhibitory concentration (IC50) amounted to 119 nM.

Turning to `C[C@H]1COCCN1c1cc(C2(S(=O)(=O)C3CCCCC3)CC2)nc(-c2ccc(NC(=O)NCCO)cc2)n1` [Example 26d, 1-[4-[4-(1-cyclohexylsulfonylcyclopropyl)-6-[(3S)-3-methylmorpholin-4-yl]pyrimidin-2-yl]phenyl]-3-(2-hydroxyethyl)urea], the IC50 is 1.2 nM.

For the molecule `CNC(=O)Nc1ccc(-c2nc(N3CCOC[C@@H]3C)cc(C3(S(=O)(=O)C4CCCCC4)CC3)n2)cc1` [Example 26e, 1-[4-[4-(1-cyclohexylsulfonylcyclopropyl)-6-[(3S)-3-methylmorpholin-4-yl]pyrimidin-2-yl]phenyl]-3-methylurea], the IC50 is 3.95 nM.

As to `C[C@H]1COCCN1c1cc(C2(S(=O)(=O)C3CCCCC3)CC2)nc(-c2ccc(NC(=O)NC(C)(C)CO)cc2)n1` [Example 26f, 1-[4-[4-(1-cyclohexylsulfonylcyclopropyl)-6-[(3S)-3-methylmorpholin-4-yl]pyrimidin-2-yl]phenyl]-3-(1-hydroxy-2-methylpropan-2-yl)urea], the IC50 came out at 4.57 nM.

Turning to `C[C@H]1COCCN1c1cc(C2(S(=O)(=O)C3CCCCC3)CC2)nc(-c2ccc(NC(=O)NCCCO)cc2)n1` [Example 26g, 1-[4-[4-(1-cyclohexylsulfonylcyclopropyl)-6-[(3S)-3-methylmorpholin-4-yl]pyrimidin-2-yl]phenyl]-3-(3-hydroxypropyl)urea], the half-maximal inhibitory concentration (IC50) was 7.46 nM.

Turning to `C[C@H]1COCCN1c1cc(C2(S(=O)(=O)C3CCCCC3)CC2)nc(-c2ccc(NC(=O)Nc3cnn(C)c3)cc2)n1` [Example 26h, 1-[4-[4-(1-cyclohexylsulfonylcyclopropyl)-6-[(3S)-3-methylmorpholin-4-yl]pyrimidin-2-yl]phenyl]-3-(1-methylpyrazol-4-yl)urea], the concentration for half-maximal inhibition (IC50) was 4 nM.

In the case of `C[C@H]1COCCN1c1cc(C2(S(=O)(=O)c3ccc(Cl)cc3)CC2)nc(-c2ccc(NC(=O)NC3CCC3)cc2)n1` [Example 27a, 1-[4-[4-[1-(4-chlorophenyl)sulfonylcyclopropyl]-6-[(3S)-3-methylmorpholin-4-yl]pyrimidin-2-yl]phenyl]-3-cyclobutylurea], the concentration for half-maximal inhibition (IC50) came out at 3.88 nM.

Take `C[C@H]1COCCN1c1cc(C2(S(=O)(=O)c3ccc(Cl)cc3)CC2)nc(-c2ccc(NC(=O)Nc3ccccn3)cc2)n1` [Example 27b, 1-[4-[4-[1-(4-chlorophenyl)sulfonylcyclopropyl]-6-[(3S)-3-methylmorpholin-4-yl]pyrimidin-2-yl]phenyl]-3-pyridin-2-ylurea]: the IC50 was determined as 4.25 nM.

`CC(C)CNC(=O)Nc1ccc(-c2nc(N3CCOC[C@@H]3C)cc(C3(S(=O)(=O)c4ccc(Cl)cc4)CC3)n2)cc1` [Example 27c, 1-[4-[4-[1-(4-chlorophenyl)sulfonylcyclopropyl]-6-[(3S)-3-methylmorpholin-4-yl]pyrimidin-2-yl]phenyl]-3-(2-methylpropyl)urea]: the IC50 stood at 14 nM.

For the molecule `CC(C)NC(=O)Nc1ccc(-c2nc(N3CCOC[C@@H]3C)cc(C3(S(=O)(=O)c4ccc(Cl)cc4)CC3)n2)cc1` [Example 27d, 1-[4-[4-[1-(4-chlorophenyl)sulfonylcyclopropyl]-6-[(3S)-3-methylmorpholin-4-yl]pyrimidin-2-yl]phenyl]-3-propan-2-ylurea], the half-inhibitory concentration (IC50) amounted to 3.07 nM.

For `CCCNC(=O)Nc1ccc(-c2nc(N3CCOC[C@@H]3C)cc(C3(S(=O)(=O)c4ccc(Cl)cc4)CC3)n2)cc1` [Example 27i, 3-[4-[4-[1-(4-chlorophenyl)sulfonylcyclopropyl]-6-[(3S)-3-methylmorpholin-4-yl]pyrimidin-2-yl]phenyl]-1-propylurea], the concentration for half-maximal inhibition (IC50) worked out at 3.02 nM.

For the molecule `C[C@H]1COCCN1c1cc(C2(S(=O)(=O)c3ccc(Cl)cc3)CC2)nc(-c2ccc(NC(=O)Nc3ccc(C(F)(F)F)cc3)cc2)n1` [Example 27j, 1-[4-[4-[1-(4-chlorophenyl)sulfonylcyclopropyl]-6-[(3S)-3-methylmorpholin-4-yl]pyrimidin-2-yl]phenyl]-3-[4-(trifluoromethyl)phenyl]urea], the IC50 was determined as 7.61 nM.

Take `C[C@H]1COCCN1c1cc(C2(S(=O)(=O)c3ccc(Cl)cc3)CC2)nc(-c2ccc(NC(=O)NC(C)(C)CO)cc2)n1` [Example 27k, 1-[4-[4-[1-(4-chlorophenyl)sulfonylcyclopropyl]-6-[(3S)-3-methylmorpholin-4-yl]pyrimidin-2-yl]phenyl]-3-(1-hydroxy-2-methylpropan-2-yl)urea]: the half-inhibitory concentration (IC50) amounted to 4.62 nM.

As to `C[C@H]1COCCN1c1cc(C2(S(=O)(=O)c3ccc(Cl)cc3)CC2)nc(-c2ccc(NC(=O)NCCCO)cc2)n1` [Example 27l, 1-[4-[4-[1-(4-chlorophenyl)sulfonylcyclopropyl]-6-[(3S)-3-methylmorpholin-4-yl]pyrimidin-2-yl]phenyl]-3-(3-hydroxypropyl)urea], the concentration for half-maximal inhibition (IC50) is 1.12 nM.

Take `C[C@H]1COCCN1c1cc(C2(S(=O)(=O)c3ccc(Cl)cc3)CC2)nc(-c2ccc(NC(=O)Nc3cnn(C)c3)cc2)n1` [Example 27m, 1-[4-[4-[1-(4-chlorophenyl)sulfonylcyclopropyl]-6-[(3S)-3-methylmorpholin-4-yl]pyrimidin-2-yl]phenyl]-3-(1-methylpyrazol-4-yl)urea]: the IC50 was 1.44 nM.

In the case of `C[C@H]1COCCN1c1cc(C2(S(=O)(=O)c3ccccn3)CC2)nc(-c2ccc(NC(=O)NC3CCC3)cc2)n1` [Example 28a, 3-cyclobutyl-1-[4-[4-[(3S)-3-methylmorpholin-4-yl]-6-(1-pyridin-2-ylsulfonylcyclopropyl)pyrimidin-2-yl]phenyl]urea], the 50% inhibitory concentration (IC50) came out at 2.53 nM.
